≈ marks a conversion by molar mass, not a printed value. Where two headings read alike, the source gives them in different places.
Columns and labels:
P. aeruginosa = assay: In vitro MIC testing, antibacterial spectrum of activity; type: cell-based; conditions: Pseudomonas aeruginosa; P. aeruginosa (11 isolates)
Bacteroides ovatus = assay: In vitro MIC testing against anaerobic bacteria; type: cell-based
Chlamydia trachomatis [1] = assay: In vitro susceptibility testing of Chlamydia trachomatis in HEp-2 cells (first study); type: cell-based; conditions: Chlamydia trachomatis, C. trachomatis strains, read-out: MIC at which 90% of the strains were inhibited (MIC90)
[2] = tested on: Streptococcus constellatus; assay: In vitro MIC testing against anaerobic bacteria; type: cell-based; conditions: Streptococcus constellatus, ATCC27823
Chlamydia pneumoniae = assay: Susceptibility testing (MIC, MBC) of 10 isolates of C. pneumoniae in HEp-2 cells; type: cell-based
Prevotella spp. = assay: In vitro MIC testing against anaerobic bacteria; type: cell-based
P. mirabilis = assay: In vitro MIC testing, antibacterial spectrum of activity; type: cell-based; conditions: Proteus mirabilis; P. mirabilis (30 isolates)
[3] = tested on: hospital-associated methicillin-resistant S. aureus (MRSA-HA); assay: In vitro MIC against isolates of MRSA-HA; type: cell-based, Staphylococcus aureus; conditions: MRSA-HA (33 isolates)
[4] = tested on: Peptostreptococcus anaerobius; assay: In vitro MIC testing against anaerobic bacteria; type: cell-based
Chlamydia trachomatis [5] = assay: Susceptibility testing (MIC, MBC) of 10 isolates of C. trachomatis in HEp-2 cells; type: cell-based
P. acnes = assay: In vitro MIC testing, antibacterial spectrum of activity; type: cell-based, Propionibacterium acnes; conditions: for MIC50: read-out: MIC50; for MIC90: read-out: MIC90
[6] = tested on: methicillin-sensitive S. aureus (MSSA); assay: In vitro MIC against isolates of MSSA; type: cell-based, Staphylococcus aureus
Propionibacterium acnes = assay: In vitro MIC testing against anaerobic bacteria; type: cell-based; conditions: Cutibacterium acnes, read-out: MIC
Bacteroides fragilis = assay: In vitro MIC testing against anaerobic bacteria; type: cell-based
S. aureus = assay: In vitro MIC testing, antibacterial spectrum of activity; type: cell-based, Staphylococcus aureus; conditions: for MIC50 / MIC90 / MIC: Staphylococcus aureus; for MIC50: read-out: MIC50; for MIC90: read-out: MIC90
[7] = tested on: community-acquired methicillin-resistant S. aureus (MRSA-CA); assay: In vitro MIC against isolates of MRSA-CA; type: cell-based, Staphylococcus aureus
Salmonella Spp. = assay: In vitro MIC testing, antibacterial spectrum of activity; type: cell-based; conditions: Salmonella
E. cloacae = assay: as above; type: cell-based; conditions: Enterobacter cloacae; E. cloacae (30 isolates)
[8] = Bacteroides ovatus 3503, read-out: MIC
[9] = Bacteroides ovatus 3508, read-out: MIC
[10] = Peptostreptococcus anaerobius 3526
[11] = Peptostreptococcus anaerobius 3531
[12] = Cutibacterium acnes, P. acnes [clinical isolates] (55 isolates)
[13] = Cutibacterium acnes, P. acnes [tetS] (13 isolates)
[14] = ATCC11829, Propionibacterium acnes 1286, ATCC 11829
[15] = Bacteroides fragilis 3374, read-out: MIC
[16] = MRSA, S. aureus [MRSA] (31 isolates)
[17] = MSSA, S. aureus [MSSA] (32 isolates)
[18] = Staphylococcus aureus, MRSA-CA (33 isolates)

C[C@H]1c2cccc(O)c2C(=O)C2=C(O)[C@]3(O)C(=O)C(C(N)=O)=C(O)[C@@H](N(C)C)[C@@H]3[C@@H](O)[C@@H]21 [Doxycycline, doxycycline]
MIC50 (P. aeruginosa): > 32 µg/mL
MIC90 (P. aeruginosa): > 32 µg/mL
MIC (Bacteroides ovatus; [8]): 8 µg/mL (≈ 18 µM)
MIC (Bacteroides ovatus; [9]): 0.12 µg/mL (≈ 0.27 µM)
MIC90 (Chlamydia trachomatis [1]): 0.125 µg/mL (≈ 0.281 µM)
MIC [2]: 16 µg/mL (≈ 36 µM)
MIC Range (Chlamydia pneumoniae; 72 h): 0.0625 to 0.125 µg/mL
MIC50 (Chlamydia pneumoniae; Chlamydia pneumoniae, 72 h): 0.125 µg/mL (≈ 0.281 µM)
MIC90 (Chlamydia pneumoniae; Chlamydia pneumoniae, 72 h): 0.125 µg/mL (≈ 0.281 µM)
MBC (Chlamydia pneumoniae; Chlamydia pneumoniae, after passage, read-out: MBC 90%): 0.5 µg/mL (≈ 1.13 µM)
MBC 90% (Chlamydia pneumoniae; after passage): 0.5 µg/mL (≈ 1.13 µM)
MBC Range (Chlamydia pneumoniae; after passage): 0.25 to 0.5 µg/mL
MIC (Prevotella spp.; Prevotella spp. 3564): 1 µg/mL (≈ 2.25 µM)
MIC (Prevotella spp.; Prevotella spp. 3568): 1 µg/mL (≈ 2.25 µM)
MIC50 (P. mirabilis): > 32 µg/mL
MIC90 (P. mirabilis): > 32 µg/mL
MIC Range [3]: 0.12 to 1 µg/mL
MIC50 ([3]; Staphylococcus aureus): 0.25 µg/mL (≈ 0.563 µM)
MIC90 ([3]; Staphylococcus aureus): 0.5 µg/mL (≈ 1.13 µM)
MIC [4, 10]: 2 µg/mL (≈ 4.5 µM)
MIC [4, 11]: 4 µg/mL (≈ 9 µM)
MIC Range (Chlamydia trachomatis [5]; 72 h): 0.03 to 0.25 µg/mL
MIC50 (Chlamydia trachomatis [5]; Chlamydia trachomatis, 72 h): 0.06 µg/mL (≈ 0.135 µM)
MIC90 (Chlamydia trachomatis [5]; Chlamydia trachomatis, 72 h): 0.125 µg/mL (≈ 0.281 µM)
MBC (Chlamydia trachomatis [5]; Chlamydia trachomatis, after passage, read-out: MBC 90%): 0.125 µg/mL (≈ 0.281 µM)
MBC Range (Chlamydia trachomatis [5]; after passage): 0.03 to 0.25 µg/mL
MIC (P. acnes; Cutibacterium acnes): 8 µg/mL (≈ 18 µM)
MIC50 (P. acnes; [12]): 0.5 µg/mL (≈ 1.13 µM)
MIC90 (P. acnes; [12]): 2 µg/mL (≈ 4.5 µM)
MIC50 (P. acnes; [13]): 0.25 µg/mL (≈ 0.563 µM)
MIC90 (P. acnes; [13]): 1 µg/mL (≈ 2.25 µM)
MIC Range (P. acnes; P. acnes [clinical isolates] (55 isolates)): 0.25 to 16 µg/mL
MIC Range (P. acnes; P. acnes [tetR] (2 isolates)): 8-8 μg/mL
MIC Range (P. acnes; P. acnes [tetS] (2 isolates)): 0.12 to 0.5 µg/mL
MIC Range (P. acnes; P. acnes [tetS] (13 isolates)): 0.25 to 1 µg/mL
MIC Range ([6]; MSSA (34 isolates)): 0.12 to 8 µg/mL
MIC50 ([6]; Staphylococcus aureus, MSSA (34 isolates)): 0.25 µg/mL (≈ 0.563 µM)
MIC90 ([6]; Staphylococcus aureus, MSSA (34 isolates), read-out: MIC90): 0.5 µg/mL (≈ 1.13 µM)
MIC ([6]; Staphylococcus aureus, single strain of doxycycline-resistant MSSA): 8 µg/mL (≈ 18 µM)
MIC (Propionibacterium acnes; [14]): 0.5 µg/mL (≈ 1.13 µM)
MIC (Propionibacterium acnes; Propionibacterium acnes 1713): 0.12 µg/mL (≈ 0.27 µM)
MIC (Bacteroides fragilis; [15]): 0.12 µg/mL (≈ 0.27 µM)
MIC (Bacteroides fragilis; Bacteroides fragilis 3479): 16 µg/mL (≈ 36 µM)
MIC Range (S. aureus; S. aureus [MRSA] (31 isolates)): 0.12 to 2 µg/mL
MIC Range (S. aureus; S. aureus [MSSA] (32 isolates)): 0.12 to 8 µg/mL
MIC Range (S. aureus; S. aureus [tetR] (10 isolates)): 1 to 16 µg/mL
MIC Range (S. aureus; S. aureus [tetS] (20 isolates)): ≦0.06-0.25 μg/mL
MIC50 (S. aureus; [16]): 0.12 µg/mL (≈ 0.27 µM)
MIC90 (S. aureus; [16]): 0.25 µg/mL (≈ 0.563 µM)
MIC50 (S. aureus; [17]): 0.12 µg/mL (≈ 0.27 µM)
MIC90 (S. aureus; [17]): 0.25 µg/mL (≈ 0.563 µM)
MIC50 (S. aureus; S. aureus [tetR] (10 isolates)): 4 µg/mL (≈ 9 µM)
MIC90 (S. aureus; S. aureus [tetR] (10 isolates)): 16 µg/mL (≈ 36 µM)
MIC50 (S. aureus; S. aureus [tetS] (20 isolates)): ≤ 0.06 µg/mL
MIC90 (S. aureus; S. aureus [tetS] (20 isolates)): 0.25 µg/mL (≈ 0.563 µM)
MIC (S. aureus; S. aureus strain PBS # 1309, tetK): 2 µg/mL (≈ 4.5 µM)
MIC (S. aureus; S. aureus strain PBS # 1310, tetM): 16 µg/mL (≈ 36 µM)
MIC (S. aureus; S. aureus strain PBS # 1739, tet38): 2 µg/mL (≈ 4.5 µM)
MIC Range ([7]; MRSA-CA (33 isolates)): 0.12 to 8 µg/mL
MIC50 [7, 18]: 0.12 µg/mL (≈ 0.27 µM)
MIC90 [7, 18]: 2 µg/mL (≈ 4.5 µM)
MIC ([7]; Staphylococcus aureus, single strain of doxycycline-resistant MRSA-CA): 8 µg/mL (≈ 18 µM)

CN(C)c1ccc(O)c2c1C[C@H]1C[C@H]3[C@H](N(C)C)C(O)=C(C(N)=O)C(=O)[C@@]3(O)C(O)=C1C2=O [Minocycline, minocycline]
MIC50 (Salmonella Spp.): 2 µg/mL (≈ 4.37 µM)
MIC50 (P. aeruginosa): > 32 µg/mL
MIC90 (P. aeruginosa): > 32 µg/mL
MIC (Bacteroides ovatus; [8]): 4 µg/mL (≈ 8.74 µM)
MIC (Bacteroides ovatus; [9]): 0.03 µg/mL (≈ 0.0656 µM)
MIC (Prevotella spp.; Prevotella spp. 3564): 0.25 µg/mL (≈ 0.546 µM)
MIC (Prevotella spp.; Prevotella spp. 3568): 0.25 µg/mL (≈ 0.546 µM)
MIC50 (P. mirabilis): 16 µg/mL (≈ 35 µM)
MIC90 (P. mirabilis): > 32 µg/mL
MIC [4, 10]: 1 µg/mL (≈ 2.19 µM)
MIC [4, 11]: 2 µg/mL (≈ 4.37 µM)
MIC (Propionibacterium acnes; [14]): 0.5 µg/mL (≈ 1.09 µM)
MIC (Propionibacterium acnes; Propionibacterium acnes 1713): 0.06 µg/mL (≈ 0.131 µM)
MIC (Bacteroides fragilis; [15]): 0.03 µg/mL (≈ 0.0656 µM)
MIC (Bacteroides fragilis; Bacteroides fragilis 3479, read-out: MIC): 8 µg/mL (≈ 17.5 µM)
MIC90 (E. cloacae): 16 µg/mL (≈ 35 µM)

Source: patent publication US20130302442A1, “METHODS OF USING (4S,4AS,5AR,12AS)-4-DIMETHYLAMINO-3,10,12,12A-TETRAHYDROXY-7-[(METHOXY(METHYL)AMINO)-METHYL]-1,11-DIOXO-1,4,4A,5,5A,6,11,12A-OCTAHYDRO-NAPHTHACENE-2-CARBOXYLIC ACID AMIDE” (priority 2012, published 2013)
